Laboratory results published in patent US20100267798A1, “PHARMACEUTICAL FORMULATIONS AND USE THEREOF IN THE PREVENTION OF STROKE, DIABETES AND/OR CONGESTIVE HEART FAILURE” (AVENTS PHARMA DEUTSCHLAND GMBH, priority 1999, published 2010).

Tested on: participants at high risk for cardiovascular events
Assay: Large-scale clinical trial of ramipril versus placebo in reducing cardiovascular events
Assay type: in vivo, human
Procedure: A large-scale clinical trial was designed to examine the effect of the ACE inhibitor ramipril versus placebo in reducing cardiovascular events.
The study was conducted in 267 centres in 19 countries over a six year period and included 9,541 participants who are at high risk for cardiovascular events due to a history of previous ischaemic heart disease, stroke, peripheral arterial disease or individuals with diabetes.
The systolic blood pressure at inclusion of the patients was on average 138 mm Hg and thus the patients were normotensive at study start. After one month of therapy with either ramipril or placebo, the systolic blood pressure had decreased by 5.48 mm Hg and 1.59 mm Hg, respectively.
The primary endpoint of the study was myocardial infarction (MI), stroke and cardiovascular (CV) death (mortality).

## CCOC(=O)[C@H](CCc1ccccc1)N[C@@H](C)C(=O)N1[C@H](C(=O)O)C[C@@H]2CCC[C@@H]21 [ramipril]
After one month of therapy, normotensive patients, on average 138 mm Hg at inclusion
  decrease in systolic blood pressure: 5.48 mm Hg
Patients taking ramipril versus placebo
  reduction in the need for revascularisation procedures and diabetic complications: between a fourth and a fifth
Patients taking ramipril, study stopped early
  reduction in the combined endpoint of cardiovascular deaths, heart attacks and strokes: very clear reduction
Ramipril group versus placebo
  reduction in the number of patients who developed diabetes: 36%
Ramipril group versus placebo, no signs or symptoms of CHF at study start
  reduction in the number of patients who developed CHF: 21%
Ramipril group versus placebo, patients normotensive when recruited
  reduction in the number of patients who developed a stroke: 32%
